The record followed here is patent publication US20240228555A9, “ANTIMICROBIAL PEPTIDOMIMETICS” (Basilea Pharmaceutica International AG, Allschwil, priority 2020, published 2024).

For series [1], the system named is human red blood cells (hRBC). The series is classed as cell-based. The conditions noted are these: red cells of human, 1 h, 0.2 g/L. On the procedure:
(§1) Lyophilized peptides were weighed on a Microbalance (Mettler MT5) and dissolved in sterile water to a final concentration of 1 mg/mL. Stock solutions were kept at +4° C., light protected.
The peptides were tested for their hemolytic activity against human red blood cells (hRBC). Fresh hRBC were washed three times with phosphate buffered saline (PBS) and centrifuged for 5 min at 3000×g. Compounds (200 μg/mL) were incubated with 20% hRBC (v/v) for 1 h at 37° C. and shaking at 300 rpm. A value of 0% and 100% cell lyses, respectively, was determined by incubation of hRBC in the presence of PBS and 2.5% Triton X-100 in H2O, respectively. The samples were centrifuged, the supernatants were 8-fold diluted in PBS buffer and the optical densities (OD) were measured at 540 nm. The 100% lyses value (OD540H2O) gave an OD540 of approximately 0.5-1.0.
Percent hemolysis was calculated as follows: (OD540peptide/OD540H2O)×100%.

The test system of series [2] is Escherichia coli ATCC 25922. The conditions noted are these: ATCC 25922. On the procedure:
as §1
(§2) Colonies of the microorganisms were diluted in saline (0.85%, NaCl) and adjusted using a McFarland reader (bioMérieux SA, Marcy-l'Etoile, France) to 0.5 McFarland standard. Subsequently, the bacterial suspension was diluted in Mueller-Hinton II (MHII, cation adjusted) broth to give approximately 5×10^5 colony forming units (CFU/mL).
(§3) 10^6 colony forming units (CFU)/mL. Aliquots (90 μl) of inoculate were added to 10 μl of water+P-80 (Polysorbate 80, 0.002% final concentration) containing the peptide in serial two-fold dilutions at 10 fold final concentration. The following microorganisms were used to determine antibiotic selectivity of the peptides: Escherichia coli ATCC 25922, Escherichia coli MCR-1 Af 45 and Klebsiella pneumoniae SSI3010.

Series [3] relates to Klebsiella pneumoniae SSI3010. The conditions noted are these: SSI3010. On the procedure: as §1, §2, §3
For series [4], the system named is Escherichia coli MCR-1 Af 45. To be noted: Mueller-Hinton broth II, no visible growth after 18-20 hours at 35° C. On the procedure:
as §1, §2, §3

Where a SMILES comes first, the peptide text is derived from it.

`CC[C@H](C)[C@H](NC(=O)[C@@H](NC(=O)[C@@H]1C[C@@H](O)CN1C(=O)[C@@H](N)C(C)C)[C@@H](C)CC)C(=O)N[C@@H](Cc1ccc(O)cc1)C(=O)N[C@@H]1C(=O)N[C@@H](CC(N)=O)C(=O)N[C@@H](CCCNC(=N)N)C(=O)N[C@@H](CCN)C(=O)N[C@@H](CO)C(=O)N[C@H](CCN)C(=O)N[C@@H]([C@@H](C)CC)C(=O)N[C@H](C(=O)N[C@@H](CCN)C(=O)N[C@@H](CCN)C(=O)N[C@@H](Cc2ccc(O)cc2)C(=O)O)CSSC1(C)C` [Example 84, Val-Hyp-Ile-Ile-Tyr-Pen-Asn-Arg-Dab-Ser-^DDab-Ile-Cys-Dab-Dab-Tyr] (HELM PEPTIDE1{V.[Hyp].I.I.Y.[Pen].N.R.[Dab].S.[NCC[C@@H](N[*:1])C(=O)[*:2]].I.C.[Dab].[Dab].Y}$PEPTIDE1,PEPTIDE1,6:R3-13:R3$$$V2.0): the “Hemolysis at 0.2 g/L” value in series [1] is on record as under 1%. Also, the “Escherichia coli ATCC 25922 MIC” value in series [2] came out at 0.25 µg/mL. In addition, the “Klebsiella pneumoniae SSI3010 MIC” value in series [3] was 0.5 µg/mL. Further, in series [4], the “Escherichia coli MCR-1 Af 45 MIC” value amounted to 0.25 µg/mL.

With `CC[C@H](C)[C@H](NC(=O)[C@@H](NC(=O)[C@@H]1C[C@@H](O)CN1C(=O)[C@@H](N)C(C)C)[C@@H](C)CC)C(=O)N[C@@H](Cc1ccc(O)cc1)C(=O)N[C@@H]1C(=O)N[C@@H](CC(N)=O)C(=O)N[C@@H](CCCNC(=N)N)C(=O)N[C@@H](CCN)C(=O)N[C@@H]([C@@H](C)O)C(=O)N[C@H](CCN)C(=O)N[C@@H](CCCCN)C(=O)N[C@H](C(=O)N[C@@H](CCN)C(=O)N[C@@H](CCCN)C(=O)N[C@@H](Cc2ccc(O)cc2)C(=O)O)CSSC1(C)C` [Example 85, Val-Hyp-Ile-Ile-Tyr-Pen-Asn-Arg-Dab-Thr-^DDab-Lys-Cys-Dab-Orn-Tyr] (HELM PEPTIDE1{V.[Hyp].I.I.Y.[Pen].N.R.[Dab].T.[NCC[C@@H](N[*:1])C(=O)[*:2]].K.C.[Dab].[Orn].Y}$PEPTIDE1,PEPTIDE1,6:R3-13:R3$$$V2.0), the “Hemolysis at 0.2 g/L” value in series [1] is given as under 1%. Besides, the “Escherichia coli ATCC 25922 MIC” value in series [2] was 0.125 µg/mL. Also, in series [3], the “Klebsiella pneumoniae SSI3010 MIC” value turned out to be 0.25 µg/mL. In series [4], the “Escherichia coli MCR-1 Af 45 MIC” value stood at 0.0625 µg/mL.

`CC[C@H](C)[C@H](NC(=O)[C@@H](NC(=O)[C@@H]1C[C@@H](O)CN1C(=O)[C@@H](N)C(C)C)[C@@H](C)CC)C(=O)N[C@@H](Cc1ccc(O)cc1)C(=O)N[C@@H]1C(=O)N[C@@H](CC(N)=O)C(=O)N[C@@H](CCCNC(=N)N)C(=O)N[C@@H](CCN)C(=O)N[C@@H](CO)C(=O)N[C@H](CCN)C(=O)N[C@@H](CCCCN)C(=O)N[C@H](C(=O)N[C@@H](CCN)C(=O)N[C@@H](CCCN)C(=O)N[C@@H](Cc2ccc(O)cc2)C(=O)O)CSSC1(C)C` [Example 86, Val-Hyp-Ile-Ile-Tyr-Pen-Asn-Arg-Dab-Ser-^DDab-Lys-Cys-Dab-Orn-Tyr] (HELM PEPTIDE1{V.[Hyp].I.I.Y.[Pen].N.R.[Dab].S.[NCC[C@@H](N[*:1])C(=O)[*:2]].K.C.[Dab].[Orn].Y}$PEPTIDE1,PEPTIDE1,6:R3-13:R3$$$V2.0): in series [1], the “Hemolysis at 0.2 g/L” value was under 1%. Further, the “Escherichia coli ATCC 25922 MIC” value in series [2] came out at 0.125 µg/mL. In series [3], the “Klebsiella pneumoniae SSI3010 MIC” value is 0.25 µg/mL. The “Escherichia coli MCR-1 Af 45 MIC” value in series [4] is 0.0625 µg/mL.

Consider `CC[C@H](C)[C@H](NC(=O)[C@@H](NC(=O)[C@@H]1C[C@@H](O)CN1C(=O)[C@@H](N)C(C)C)[C@@H](C)CC)C(=O)N[C@@H](Cc1ccc(O)cc1)C(=O)N[C@@H]1C(=O)N[C@@H](CC(N)=O)C(=O)N[C@@H](CCCNC(=N)N)C(=O)N[C@@H](CCN)C(=O)N[C@@H]([C@@H](C)O)C(=O)N[C@H](CCN)C(=O)N[C@@H]([C@@H](C)CC)C(=O)N[C@H](C(=O)N[C@@H](CCN)C(=O)N[C@@H](CCCNC(=N)N)C(=O)N[C@@H](Cc2ccc(O)cc2)C(=O)O)CSSC1(C)C` [Example 87, Val-Hyp-Ile-Ile-Tyr-Pen-Asn-Arg-Dab-Thr-^DDab-Ile-Cys-Dab-Arg-Tyr] (HELM PEPTIDE1{V.[Hyp].I.I.Y.[Pen].N.R.[Dab].T.[NCC[C@@H](N[*:1])C(=O)[*:2]].I.C.[Dab].R.Y}$PEPTIDE1,PEPTIDE1,6:R3-13:R3$$$V2.0), for which the “Hemolysis at 0.2 g/L” value in series [1] is reported as under 1%. For the same compound, the “Escherichia coli ATCC 25922 MIC” value in series [2] was found to be 0.125 µg/mL. For the same compound, the “Klebsiella pneumoniae SSI3010 MIC” value in series [3] turned out to be 0.25 µg/mL. The “Escherichia coli MCR-1 Af 45 MIC” value in series [4] is 0.125 µg/mL.

Regarding `CC[C@H](C)[C@@H]1NC(=O)[C@@H](NC(=O)[C@H](Cc2ccc(O)cc2)NC(=O)[C@@H](NC(=O)[C@@H](NC(=O)[C@@H]2C[C@@H](O)CN2C(=O)[C@@H](N)C(C)C)[C@@H](C)CC)[C@@H](C)O)C(C)(C)SSC[C@@H](C(=O)N[C@@H](CCN)C(=O)N[C@@H](CCCN)C(=O)N[C@@H](Cc2ccc(O)cc2)C(=O)O)NC(=O)[C@H](CCCCN)NC(=O)[C@@H](CCN)NC(=O)[C@H]([C@@H](C)O)NC(=O)[C@H](CCN)NC(=O)[C@H](CCCNC(=N)N)NC1=O` [Example 88, Val-Hyp-Ile-Thr-Tyr-Pen-Ile-Arg-Dab-Thr-^DDab-Lys-Cys-Dab-Orn-Tyr] (HELM PEPTIDE1{V.[Hyp].I.T.Y.[Pen].I.R.[Dab].T.[NCC[C@@H](N[*:1])C(=O)[*:2]].K.C.[Dab].[Orn].Y}$PEPTIDE1,PEPTIDE1,6:R3-13:R3$$$V2.0), in series [1], the “Hemolysis at 0.2 g/L” value is recorded as under 1%. Moreover, the “Escherichia coli ATCC 25922 MIC” value in series [2] turned out to be 0.125 µg/mL. For the same compound, the “Klebsiella pneumoniae SSI3010 MIC” value in series [3] was determined as 0.25 µg/mL. The “Escherichia coli MCR-1 Af 45 MIC” value in series [4] came to 0.0625 µg/mL.

For the compound `CC[C@H](C)[C@H](NC(=O)[C@@H]1C[C@@H](O)CN1C(=O)[C@@H](N)C(C)C)C(=O)N[C@@H](CCN)C(=O)N[C@@H](Cc1ccc(O)cc1)C(=O)N[C@@H]1C(=O)N[C@@H](CC(N)=O)C(=O)N[C@@H](CCCNC(=N)N)C(=O)N[C@@H](CCN)C(=O)N[C@@H]([C@@H](C)O)C(=O)N[C@H](CCN)C(=O)N[C@@H](CCCCN)C(=O)N[C@H](C(=O)N[C@@H](CCN)C(=O)N[C@@H](CCCN)C(=O)N[C@@H](Cc2ccc(O)cc2)C(=O)O)CSSC1(C)C` [Example 89, Val-Hyp-Ile-Dab-Tyr-Pen-Asn-Arg-Dab-Thr-^DDab-Lys-Cys-Dab-Orn-Tyr] (HELM PEPTIDE1{V.[Hyp].I.[Dab].Y.[Pen].N.R.[Dab].T.[NCC[C@@H](N[*:1])C(=O)[*:2]].K.C.[Dab].[Orn].Y}$PEPTIDE1,PEPTIDE1,6:R3-13:R3$$$V2.0), the “Hemolysis at 0.2 g/L” value in series [1] is listed as under 1%. The “Escherichia coli ATCC 25922 MIC” value in series [2] came out at 0.0625 µg/mL. For the same compound, the “Klebsiella pneumoniae SSI3010 MIC” value in series [3] is 0.25 µg/mL. Besides, the “Escherichia coli MCR-1 Af 45 MIC” value in series [4] was determined as 0.0625 µg/mL.

In the case of `CC[C@H](C)[C@H](NC(=O)[C@@H](NC(=O)[C@@H]1C[C@@H](N)CN1C(=O)[C@@H](N)C(C)C)[C@@H](C)CC)C(=O)N[C@@H](Cc1ccc(O)cc1)C(=O)N[C@@H]1C(=O)N[C@@H](CC(N)=O)C(=O)N[C@@H](CCCNC(=N)N)C(=O)N[C@@H](CCN)C(=O)N[C@@H]([C@@H](C)O)C(=O)N[C@H](CCN)C(=O)N[C@@H]([C@@H](C)CC)C(=O)N[C@H](C(=O)N[C@@H](CCN)C(=O)N[C@@H](CCCNC(=N)N)C(=O)N[C@@H](Cc2ccc(O)cc2)C(=O)O)CSSC1(C)C` [Example 90, Val-Pro((4R)NH2)-Ile-Ile-Tyr-Pen-Asn-Arg-Dab-Thr-^DDab-Ile-Cys-Dab-Arg-Tyr] (HELM PEPTIDE1{V.[N[C@@H]1C[C@@H](C(=O)[*:2])N([*:1])C1].I.I.Y.[Pen].N.R.[Dab].T.[NCC[C@@H](N[*:1])C(=O)[*:2]].I.C.[Dab].R.Y}$PEPTIDE1,PEPTIDE1,6:R3-13:R3$$$V2.0), the “Hemolysis at 0.2 g/L” value in series [1] is on record as under 1%. Also, the “Escherichia coli ATCC 25922 MIC” value in series [2] is 0.125 µg/mL. The “Klebsiella pneumoniae SSI3010 MIC” value in series [3] was 0.25 µg/mL. For the same compound, the “Escherichia coli MCR-1 Af 45 MIC” value in series [4] was found to be 0.0625 µg/mL.

On to `CC[C@H](C)[C@H](NC(=O)[C@@H](NC(=O)[C@@H]1C[C@@H](N)CN1C(=O)[C@@H](N)C(C)C)[C@@H](C)CC)C(=O)N[C@@H](Cc1ccc(O)cc1)C(=O)N[C@@H]1C(=O)N[C@@H](CC(N)=O)C(=O)N[C@@H](CCCNC(=N)N)C(=O)N[C@@H](CCN)C(=O)N[C@@H]([C@@H](C)O)C(=O)N[C@H](CCN)C(=O)N[C@@H](CCCNC(N)=O)C(=O)N[C@H](C(=O)N[C@@H](CCN)C(=O)N[C@@H](CCCNC(=N)N)C(=O)N[C@@H](Cc2ccc(O)cc2)C(=O)O)CSSC1(C)C` [Example 91, Val-Pro((4R)NH2)-Ile-Ile-Tyr-Pen-Asn-Arg-Dab-Thr-^DDab-Cit-Cys-Dab-Arg-Tyr] (HELM PEPTIDE1{V.[N[C@@H]1C[C@@H](C(=O)[*:2])N([*:1])C1].I.I.Y.[Pen].N.R.[Dab].T.[NCC[C@@H](N[*:1])C(=O)[*:2]].[Cit].C.[Dab].R.Y}$PEPTIDE1,PEPTIDE1,6:R3-13:R3$$$V2.0), for which the “Hemolysis at 0.2 g/L” value in series [1] was under 1%. In series [2], the “Escherichia coli ATCC 25922 MIC” value was 0.25 µg/mL. For the same compound, the “Klebsiella pneumoniae SSI3010 MIC” value in series [3] came out at 0.25 µg/mL. The “Escherichia coli MCR-1 Af 45 MIC” value in series [4] is 0.03125 µg/mL.
